According to publication PMC6472032 (Marine Drugs, 2019):
Positions of bridges follow the written chain, without caps; N, C: chain ends. Non-standard residues stand in square brackets, D forms with d. Residues, ends and D or L forms follow the SMILES beside them.

Key:
[1] = molecular target: rat α9α10 nAChR (Rattus norvegicus, UniProt P43144+Q9JLB5); assay: cell-based; settings: for inhibition at 0.1 µM: read-out: inhibition of ACh-evoked current amplitude; for inhibition of ACh-evoked current amplitude: 0.1 µM
[2] = molecular target: human α9α10 nAChR (Homo sapiens, UniProt Q9GZZ6+Q9UGM1); assay: cell-based; settings: for inhibition at 10 µM: read-out: inhibition of ACh-evoked currents
[3] = molecular target: rat α4β4 nAChR (Rattus norvegicus, UniProt P09483+P12392); assay type: cell-based
[4] = molecular target: rat α4β2 nAChR (Rattus norvegicus, UniProt P09483+P12390); assay type: cell-based
[5] = molecular target: rat α2β4 nAChR (Rattus norvegicus, UniProt P12389+P12392); assay type: cell-based
[6] = molecular target: rat α6/α3β4 nAChR (Rattus norvegicus, UniProt P04757+P12392+P43143); assay type: cell-based
[7] = molecular target: rat α3β2 nAChR (Rattus norvegicus, UniProt P04757+P12390); assay type: cell-based
Sequence of rat α3β2 nAChR (P04757 26-499 limits assumed): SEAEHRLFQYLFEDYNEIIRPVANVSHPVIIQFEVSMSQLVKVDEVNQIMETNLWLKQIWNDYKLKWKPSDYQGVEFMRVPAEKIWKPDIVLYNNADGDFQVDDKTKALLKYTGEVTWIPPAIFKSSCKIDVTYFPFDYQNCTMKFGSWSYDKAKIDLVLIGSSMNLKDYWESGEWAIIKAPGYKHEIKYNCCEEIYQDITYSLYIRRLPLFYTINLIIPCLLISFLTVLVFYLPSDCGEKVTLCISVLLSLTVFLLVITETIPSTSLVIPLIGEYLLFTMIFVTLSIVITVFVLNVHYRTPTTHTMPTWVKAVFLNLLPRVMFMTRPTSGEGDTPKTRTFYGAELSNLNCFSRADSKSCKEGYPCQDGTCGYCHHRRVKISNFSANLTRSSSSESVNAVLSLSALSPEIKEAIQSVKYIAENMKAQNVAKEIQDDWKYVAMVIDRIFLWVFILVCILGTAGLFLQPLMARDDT
Sequence of rat α3β2 nAChR (P12390 25-500 limits assumed): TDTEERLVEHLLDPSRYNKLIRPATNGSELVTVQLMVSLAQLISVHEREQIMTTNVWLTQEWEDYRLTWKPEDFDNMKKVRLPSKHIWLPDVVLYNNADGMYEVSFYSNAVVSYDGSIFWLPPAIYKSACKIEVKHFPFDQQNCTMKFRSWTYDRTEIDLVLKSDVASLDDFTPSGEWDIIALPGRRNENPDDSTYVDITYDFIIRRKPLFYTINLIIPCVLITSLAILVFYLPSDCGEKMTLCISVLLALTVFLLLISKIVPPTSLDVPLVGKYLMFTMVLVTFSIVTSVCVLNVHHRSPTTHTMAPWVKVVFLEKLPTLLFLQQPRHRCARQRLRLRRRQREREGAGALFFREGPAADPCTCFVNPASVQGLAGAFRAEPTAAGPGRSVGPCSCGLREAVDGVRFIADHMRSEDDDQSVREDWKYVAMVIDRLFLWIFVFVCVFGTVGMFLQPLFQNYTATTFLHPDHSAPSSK

Sequence of human α9α10 nAChR (Q9UGM1 26-479 limits assumed): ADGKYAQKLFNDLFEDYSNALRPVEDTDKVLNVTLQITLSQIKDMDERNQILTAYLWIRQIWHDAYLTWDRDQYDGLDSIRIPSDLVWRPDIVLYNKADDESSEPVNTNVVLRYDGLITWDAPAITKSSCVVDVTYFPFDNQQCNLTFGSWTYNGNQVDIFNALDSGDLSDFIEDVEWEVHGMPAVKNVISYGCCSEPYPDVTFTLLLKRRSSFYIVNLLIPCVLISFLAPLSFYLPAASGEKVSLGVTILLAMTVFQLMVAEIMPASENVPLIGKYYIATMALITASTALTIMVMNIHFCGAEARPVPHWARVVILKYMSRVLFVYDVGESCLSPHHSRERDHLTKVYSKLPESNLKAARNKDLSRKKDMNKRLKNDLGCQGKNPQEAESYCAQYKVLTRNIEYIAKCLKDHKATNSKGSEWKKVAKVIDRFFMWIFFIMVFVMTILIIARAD
Sequence of human α9α10 nAChR (Q9GZZ6 25-450 limits assumed): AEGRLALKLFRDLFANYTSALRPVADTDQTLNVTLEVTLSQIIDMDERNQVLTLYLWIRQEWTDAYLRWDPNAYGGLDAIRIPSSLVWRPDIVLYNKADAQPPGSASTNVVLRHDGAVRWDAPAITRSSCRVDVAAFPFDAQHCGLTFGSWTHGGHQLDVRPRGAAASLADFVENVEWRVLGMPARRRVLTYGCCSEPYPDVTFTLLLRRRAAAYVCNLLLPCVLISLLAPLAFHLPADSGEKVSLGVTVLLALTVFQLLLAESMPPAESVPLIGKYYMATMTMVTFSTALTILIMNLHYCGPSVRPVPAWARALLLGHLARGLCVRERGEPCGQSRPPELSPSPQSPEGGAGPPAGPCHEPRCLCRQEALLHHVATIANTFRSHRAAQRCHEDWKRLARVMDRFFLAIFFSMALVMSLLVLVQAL
Sequence of rat α2β4 nAChR (P12389 28-511 limits assumed): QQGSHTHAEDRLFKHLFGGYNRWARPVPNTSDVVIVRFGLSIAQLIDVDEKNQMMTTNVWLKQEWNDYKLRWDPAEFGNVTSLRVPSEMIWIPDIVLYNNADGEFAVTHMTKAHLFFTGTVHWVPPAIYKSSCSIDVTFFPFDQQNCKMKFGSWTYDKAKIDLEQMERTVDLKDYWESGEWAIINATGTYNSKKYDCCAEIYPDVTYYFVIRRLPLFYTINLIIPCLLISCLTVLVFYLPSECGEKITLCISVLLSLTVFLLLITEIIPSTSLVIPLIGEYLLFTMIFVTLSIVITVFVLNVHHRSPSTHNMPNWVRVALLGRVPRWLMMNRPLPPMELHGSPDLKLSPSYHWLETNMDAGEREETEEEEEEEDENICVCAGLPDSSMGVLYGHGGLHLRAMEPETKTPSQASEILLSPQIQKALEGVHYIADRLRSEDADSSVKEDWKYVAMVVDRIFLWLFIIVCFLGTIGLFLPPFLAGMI
Sequence of rat α2β4 nAChR (P12392 21-495 limits assumed): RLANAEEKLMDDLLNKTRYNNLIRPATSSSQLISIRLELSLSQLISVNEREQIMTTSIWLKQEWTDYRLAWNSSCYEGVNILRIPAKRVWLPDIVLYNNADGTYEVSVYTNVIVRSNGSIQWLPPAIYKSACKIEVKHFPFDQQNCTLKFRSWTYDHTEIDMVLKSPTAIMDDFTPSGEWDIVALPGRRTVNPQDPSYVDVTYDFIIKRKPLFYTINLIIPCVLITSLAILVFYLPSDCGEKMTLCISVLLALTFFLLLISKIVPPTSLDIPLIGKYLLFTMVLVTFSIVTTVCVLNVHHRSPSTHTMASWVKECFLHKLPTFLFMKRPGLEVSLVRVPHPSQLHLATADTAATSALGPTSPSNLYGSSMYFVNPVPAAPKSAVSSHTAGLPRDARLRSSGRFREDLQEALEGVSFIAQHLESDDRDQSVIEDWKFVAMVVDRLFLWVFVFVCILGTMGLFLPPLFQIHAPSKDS
Sequence of rat α9α10 nAChR (P43144 26-479 limits assumed): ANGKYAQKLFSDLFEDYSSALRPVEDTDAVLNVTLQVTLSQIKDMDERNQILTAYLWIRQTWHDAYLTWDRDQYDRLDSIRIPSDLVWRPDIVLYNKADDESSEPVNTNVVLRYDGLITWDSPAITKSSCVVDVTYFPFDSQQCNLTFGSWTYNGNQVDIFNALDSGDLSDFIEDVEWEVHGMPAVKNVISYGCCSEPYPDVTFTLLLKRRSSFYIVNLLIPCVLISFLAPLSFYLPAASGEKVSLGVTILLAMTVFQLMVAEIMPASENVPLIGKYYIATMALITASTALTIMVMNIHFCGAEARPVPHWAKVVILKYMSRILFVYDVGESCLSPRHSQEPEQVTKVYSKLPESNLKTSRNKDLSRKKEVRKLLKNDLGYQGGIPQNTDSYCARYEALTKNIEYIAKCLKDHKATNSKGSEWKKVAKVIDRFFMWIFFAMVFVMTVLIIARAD
Sequence of rat α9α10 nAChR (Q9JLB5 25-447 limits assumed): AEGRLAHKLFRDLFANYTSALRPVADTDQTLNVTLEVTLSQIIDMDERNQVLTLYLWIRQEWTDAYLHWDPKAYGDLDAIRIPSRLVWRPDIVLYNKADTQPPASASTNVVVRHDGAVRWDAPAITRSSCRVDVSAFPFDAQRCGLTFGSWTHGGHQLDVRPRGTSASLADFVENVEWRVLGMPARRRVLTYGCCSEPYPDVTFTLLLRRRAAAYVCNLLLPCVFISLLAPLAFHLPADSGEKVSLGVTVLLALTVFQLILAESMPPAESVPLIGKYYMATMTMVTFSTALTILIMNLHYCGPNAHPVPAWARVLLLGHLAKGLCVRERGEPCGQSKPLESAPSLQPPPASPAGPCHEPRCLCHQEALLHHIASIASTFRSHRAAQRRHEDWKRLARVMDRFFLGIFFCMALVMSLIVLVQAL
Sequence of rat α4β4 nAChR (P09483 31-630 limits assumed): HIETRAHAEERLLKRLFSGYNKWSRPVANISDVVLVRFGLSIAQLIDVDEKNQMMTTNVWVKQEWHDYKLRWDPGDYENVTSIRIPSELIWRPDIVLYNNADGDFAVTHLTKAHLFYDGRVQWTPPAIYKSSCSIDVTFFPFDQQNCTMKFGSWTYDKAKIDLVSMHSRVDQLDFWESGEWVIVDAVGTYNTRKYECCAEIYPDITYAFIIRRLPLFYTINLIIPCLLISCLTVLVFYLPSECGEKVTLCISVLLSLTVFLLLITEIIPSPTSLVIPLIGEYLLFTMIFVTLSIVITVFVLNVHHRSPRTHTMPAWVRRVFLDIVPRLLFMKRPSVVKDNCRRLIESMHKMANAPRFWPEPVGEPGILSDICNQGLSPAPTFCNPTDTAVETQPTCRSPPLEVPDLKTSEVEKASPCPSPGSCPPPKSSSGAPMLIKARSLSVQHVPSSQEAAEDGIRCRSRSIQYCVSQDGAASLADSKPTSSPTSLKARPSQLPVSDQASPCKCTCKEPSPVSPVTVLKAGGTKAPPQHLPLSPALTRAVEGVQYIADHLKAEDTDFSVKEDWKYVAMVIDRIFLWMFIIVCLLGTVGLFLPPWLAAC
Sequence of rat α4β4 nAChR (P12392 21-495 limits assumed): as the sequence (P12392 21-495 limits assumed) above
Sequence of rat α4β2 nAChR (P09483 31-630 limits assumed): as the sequence (P09483 31-630 limits assumed) above
Sequence of rat α4β2 nAChR (P12390 25-500 limits assumed): as the sequence (P12390 25-500 limits assumed) above

Compound `C[C@@H](N)C(=O)N[C@H]1CSSC[C@@H]2NC(=O)[C@H](CCCNC(=N)N)NC(=O)[C@@H]3CCCN3C(=O)[C@H](CC(=O)O)NC(=O)[C@H](CO)NC(=O)[C@H](CSSC[C@@H](C(=O)N[C@@H](CCCNC(=N)N)C(=O)O)NC(=O)[C@H](CCCNC(=N)N)NC(=O)[C@H](Cc3ccc(O)cc3)NC(=O)[C@H](CCCNC(=N)N)NC2=O)NC1=O` [Compound 1] (H-[dA]CCSDPRCRYRCR-OH; disulfide 2-8, 3-12) has an IC50 [1] of 41.1 nM, an inhibition at 0.1 µM [1] of 70.6 ± 2% and an IC50 [2] greater than 10000 nM.

In the case of `N=C(N)NCCC[C@H](NC(=O)[C@@H]1CSSC[C@H]2NC(=O)[C@@H](NC(=O)CN)CSSC[C@H](NC(=O)[C@H](CCCNC(=N)N)NC(=O)[C@@H]3CCCN3C(=O)[C@H](CC(=O)O)NC(=O)[C@H](CO)NC2=O)C(=O)N[C@@H](CCCNC(=N)N)C(=O)N[C@@H](Cc2ccc(O)cc2)C(=O)N[C@@H](CCCNC(=N)N)C(=O)N1)C(=O)O` [Compound 3], the inhibition at 0.1 µM [1] is reported as 78.7 ± 2%.

`N=C(N)NCCC[C@H](NC(=O)[C@@H]1CSSC[C@@H]2NC(=O)[C@@H](NC(=O)CN)CSSC[C@H](NC(=O)[C@H](CCCNC(=N)N)NC(=O)[C@@H]3CCCN3C(=O)[C@H](CC(=O)O)NC(=O)[C@@H](CO)NC2=O)C(=O)N[C@@H](CCCNC(=N)N)C(=O)N[C@@H](Cc2ccc(O)cc2)C(=O)N[C@@H](CCCNC(=N)N)C(=O)N1)C(=O)O` [Compound 4] was tested, and the “activity at a concentration of 10 μM” value [1] was “not active”.

`N=C(N)NCCC[C@H](NC(=O)[C@@H]1CSSC[C@@H]2NC(=O)[C@@H](NC(=O)CN)CSSC[C@H](NC(=O)[C@H](CCCNC(=N)N)NC(=O)[C@@H]3CCCN3C(=O)[C@@H](CC(=O)O)NC(=O)[C@H](CO)NC2=O)C(=O)N[C@@H](CCCNC(=N)N)C(=O)N[C@@H](Cc2ccc(O)cc2)C(=O)N[C@@H](CCCNC(=N)N)C(=O)N1)C(=O)O` [Compound 5] was tested, and the “activity at a concentration of 10 μM” value [1] was “not active”.

With `N=C(N)NCCC[C@H](NC(=O)[C@@H]1CSSC[C@@H]2NC(=O)[C@@H](NC(=O)CN)CSSC[C@H](NC(=O)[C@H](CCCNC(=N)N)NC(=O)[C@H]3CCCN3C(=O)[C@H](CC(=O)O)NC(=O)[C@H](CO)NC2=O)C(=O)N[C@@H](CCCNC(=N)N)C(=O)N[C@@H](Cc2ccc(O)cc2)C(=O)N[C@@H](CCCNC(=N)N)C(=O)N1)C(=O)O` [Compound 6] the “activity at a concentration of 10 μM” value [1] was “not active”.

With `N=C(N)NCCC[C@H](NC(=O)[C@@H]1CSSC[C@@H]2NC(=O)[C@@H](NC(=O)CN)CSSC[C@H](NC(=O)[C@@H](CCCNC(=N)N)NC(=O)[C@@H]3CCCN3C(=O)[C@H](CC(=O)O)NC(=O)[C@H](CO)NC2=O)C(=O)N[C@@H](CCCNC(=N)N)C(=O)N[C@@H](Cc2ccc(O)cc2)C(=O)N[C@@H](CCCNC(=N)N)C(=O)N1)C(=O)O` [Compound 7] the “activity at a concentration of 10 μM” value [1] was “not active”.

With `N=C(N)NCCC[C@H](NC(=O)[C@@H]1CSSC[C@@H]2NC(=O)[C@@H](NC(=O)CN)CSSC[C@H](NC(=O)[C@H](CCCNC(=N)N)NC(=O)[C@@H]3CCCN3C(=O)[C@H](CC(=O)O)NC(=O)[C@H](CO)NC2=O)C(=O)N[C@@H](CCCNC(=N)N)C(=O)N[C@@H](Cc2ccc(O)cc2)C(=O)N[C@H](CCCNC(=N)N)C(=O)N1)C(=O)O` [Compound 11] the “activity at a concentration of 10 μM” value [1] was “not active”.

In the case of `N=C(N)NCCC[C@@H]1NC(=O)[C@@H]2CSSC[C@H](NC(=O)CN)C(=O)N[C@@H](CSSC[C@@H](C(=O)N[C@H](CCCNC(=N)N)C(=O)O)NC(=O)[C@H](CCCNC(=N)N)NC(=O)[C@H](Cc3ccc(O)cc3)NC1=O)C(=O)N[C@@H](CO)C(=O)N[C@@H](CC(=O)O)C(=O)N1CCC[C@H]1C(=O)N[C@@H](CCCNC(=N)N)C(=O)N2` [Compound 13], the inhibition at 0.1 µM [1] is reported as 97.2 ± 0.05%, the inhibition at 10 µM [2] is reported as 70 to 90% and the “activity against rat α4β4 nAChR” value [3] is reported as “inactive”. The “activity against rat α4β2 nAChR” value [4] was “inactive”, the “activity against rat α2β4 nAChR” value [5] was “inactive” and the “activity against rat α6/α3β4 nAChR” value [6] was “inactive”. The “activity against rat α3β2 nAChR” value [7] was “inactive”.

For `N=C(N)NCCC[C@@H](NC(=O)[C@@H]1CSSC[C@@H]2NC(=O)[C@@H](NC(=O)CN)CSSC[C@H](NC(=O)[C@@H](CCCNC(=N)N)NC(=O)[C@@H]3CCCN3C(=O)[C@H](CC(=O)O)NC(=O)[C@H](CO)NC2=O)C(=O)N[C@H](CCCNC(=N)N)C(=O)N[C@@H](Cc2ccc(O)cc2)C(=O)N[C@H](CCCNC(=N)N)C(=O)N1)C(=O)O` [Compound 14], the “inhibition of ACh-evoked current amplitude” value [1] was “did not inhibit”, the inhibition at 10 µM [2] was 70 to 90% and the “activity against rat α4β4 nAChR” value [3] was “inactive”. For the same compound, the “activity against rat α4β2 nAChR” value [4] was “inactive”, the “activity against rat α2β4 nAChR” value [5] was “inactive” and the “activity against rat α6/α3β4 nAChR” value [6] was “inactive”. The “activity against rat α3β2 nAChR” value [7] was “inactive”.

With `N=C(N)NCCC[C@H]1NC(=O)[C@H](Cc2ccc(O)cc2)NC(=O)[C@@H](CCCNC(=N)N)NC(=O)[C@@H]2CSSC[C@H](NC(=O)CN)C(=O)N[C@@H](CSSC[C@@H](C(N)=O)NC1=O)C(=O)N[C@@H](CO)C(=O)N[C@@H](CC(=O)O)C(=O)N1CCC[C@H]1C(=O)N[C@H](CCCNC(=N)N)C(=O)N2` [Compound 15] (H-GCCSDP[dR]C[dR]Y[dR]C-NH2; disulfide 2-8, 3-12) the IC50 [1] was 288 nM, the “inhibition of ACh-evoked current amplitude” value [1] was “did not inhibit” and the IC50 [2] was 680 nM. For the same compound, the inhibition at 10 µM [2] was 70 to 90%, the “activity against rat α4β4 nAChR” value [3] was “inactive” and the “activity against rat α4β2 nAChR” value [4] was “inactive”. For the same compound, the “activity against rat α2β4 nAChR” value [5] was “inactive”, the “activity against rat α6/α3β4 nAChR” value [6] was “inactive” and the “activity against rat α3β2 nAChR” value [7] was “inactive”.
